The subject of assay [1] is U266DOX4, lymphoblast (myeloma), selected for resistance to Doxorubicin. Format: cell-based. As for the experimental part:
U266DOX4, lymphoblast (myeloma), selected for resistance to Doxorubicin (Alvarez-Fernández et al. Clin Cancer Res. 2013 May 15; 19(10):2677-87).
(§1) All cell lines were cultured in incubator at 37° C. in RPMI-1640 (Sigma R8758) medium with 10% of fetal bovine serum inactivated (FBS) and 2 mM glutamine (Sigma G7513). During the amplification step cells were centrifuged and transferred into the culturing medium. Cells were counted in a Neubauer chamber after labelling with Tripan-Blue.
(§2) Cells were seeded at a density of 10000 cells/well in 100 μl of medium in 96 well plates. After 24 h, the compounds to be tested were added to calculate the dose/response curve at the starting concentration of 100 μM with serial dilutions (1:1). Controls are the untreated cells. Each experiment was performed in triplicate.
(§3) Cells were incubated with the peptidomimetic compound (S09) at the indicated concentrations during 24-72 h in incubator under CO2 atmosphere at 37° C. Then, cell viability was measured by means of MTT (3-(4,5-dimethylthiazol-2-yl)-2,5-diphenyltetrazolium bromide) assay. Stock solution of MTT (475989 Calbiochem) was 5 mg/ml in PBS. 1×.10 μl/well of MTT solution were added and the plate was incubated for 3-4 hr. The medium was discarded and 100 μl of extracting buffer (PBS 1×, 15% SDS, 50% […] N,N-Dimethylformamide, pH 4.7) were added to each well. Plates were incubated for 16 h at room temperature under orbital shaking. Absorbance at 570 nm was finally measured. As negative control (experiment noise) 3 wells were treated with 20 μl/well of a solution of SDS 10% in H2O.
(§4) Data analysis was performed calculating the percentage of cell viability normalized vs. the values of negative control, which was considered equal to 100%. The dose/response curve was fitted through the sigmoidal equation dose-response (variable slope) and the IC50 values were calculated as follow:
(§5) Y=Bottom+(Top−Bottom)/(1+10^{[(LogIC50−X)*HillSlope]},
U266DOX4, lymphoblast (myeloma), selected for resistance to Doxorubicin (Alvarez-Fernandez et al. Clin Cancer Res. 2013 May 15; 19(10):2677-87).
(§6) All cell lines were cultured in incubator at 37° C. in RPMI-1640 (Sigma R8758) medium with 10% of fetal bovine serum inactivated (FBS) and 2 mM glutamine (Sigma G7513).
Cells were seeded at a density of 10,000 cells/well in 100 μl of medium in 96 well plates. After 24 h, the compounds to be tested were added to calculate the dose/response curve at the starting concentration of 40 μM with serial dilutions (1:1). […]
Cells were incubated with the peptidomimetic compounds at the indicated concentrations during 24-72 h in incubator under CO2 atmosphere at 37° C. Then, cell viability was measured by means of MTT (3-(4,5-dimethylthiazol-2-yl)-2,5-diphenyltetrazolium bromide) assay. […] Absorbance at 570 nm was finally measured. […]

Assay [2] relates to MBA-MD231, epithelial (breast cancer). Nature of the assay: MTT viability assay, MBA-MD231. Format: cell-based. As for the experimental part:
(§7) MBA-MD231, epithelial (breast cancer), ECACC: 86012803 […] During the amplification step and the assays adherent cells were rinsed with DPBS (Dulbecco's Phosphate Buffered Saline, Sigma D1283) three times and afterward treated for 5 minutes with trypsin ([…]) (Gibco-BRL, 15400054) in solution of DPBS at 37° C., and, once detached, transferred in the culturing medium. No-adherent cells were centrifuged and transferred in the culturing medium. Cells were counted in a Neubauer chamber after labelling with Tripan-Blue. […] Cells were seeded at a density of 10,000 cells/well in 100 μl of medium in 96 well plates. […] Controls are the untreated cells. Each experiment was performed in triplicate. Cells were incubated with the compounds at the indicated concentrations during 24-72 h in incubator under CO2 atmosphere at 37° C. […] Stock solution of MTT (475989 Calbiochem) was 5 mg/ml in PBS. 1×.10 μl/well of MTT solution were added and the plate was incubated for 3-4 hr. […] Plates were incubated for 16 h at room temperature under orbital shaking. Absorbance at 570 nm was finally measured. […] The dose/response curve was fitted through the sigmoidal equation dose-response (variable slope) and the IC50 values were calculated as follow: […]

Assay [3] deals with RPMI-8266, lymphoblast (myeloma). Nature of the assay: MTT viability assay, RPMI-8266. Format: cell-based. The procedure:
RPMI-8266, lymphoblast (myeloma), ATCC® CCL155™
as §1, §2, §3, §4, §5, §6
(§8) Cells were seeded at a density of 10,000 cells/well in 100 μl of medium in 96 well plates. After 24 h, the compounds to be tested were added to calculate the dose/response curve at the starting concentration of 40 μM with serial dilutions (1:1). Controls are the untreated cells. Each experiment was performed in triplicate.
as §3, with “compounds” for “compound (S09)”

Assay [4] deals with MM1R, lymphoblast (myeloma), resistant to Dexamethasone. The procedure:
MM1R, lymphoblast, (myeloma), ATCC® CRL-2975™, resistant to Dexamethasone
as §1, §2, §3, §4, §5, §6, §8
as §3, with “compounds” for “compound (S09)”

Assay [5] concerns NCI-H128, epithelial (small cell lung cancer). In words: MTT viability assay, NCI-H128. Format: cell-based. As for the experimental part: as §7, with “NCI-[…],” for “MBA-MD231,”, “(small cell lung” for “(breast”, “ATCC: HTB-120TM” for “ECACC: 86012803”
Where [6] appears, read: U266DOX4, 72 hr, Table 14, read-out: IC50 after 72 hr values.

Where two headings read alike, the source gives them in different places. Starred links: 1 amine or outer side, 2 acyl side, 3 side chain; linkers in the order of their positions; H or OH if unused. Positions of bridges follow the written chain, without caps; N, C: chain ends. Non-standard residues stand in square brackets, D forms with d. Residues, ends and D or L forms follow the SMILES beside them. ξ: configuration not given here. Biphenyl(4,4'-CH2)2 = c1cc(-c2ccc(C[*:2])cc2)ccc1C[*:1]; ξαMeNle(6-ylidene) = CC(CCCC=[*:3])(N[*:1])C(=O)[*:2]; X1 = CC(CCCCCCC=[*:3])(N[*:1])C(=O)[*:2]; Octanediyl(1,8) = C(CCCC[*:2])CCC[*:1]; ξC = NC(CS)C(=O)O

As for `CC[C@H](C)[C@H](NC(=O)[C@H](Cc1ccc(O)cc1)NC(=O)[C@H](C)NC(=O)C1CSCCCCCCCCSCC(NC(=O)[C@H](CCCCN)NC(=O)[C@@H]2CCCN2C(=O)[C@H](C)N)C(=O)N[C@@H](C(C)C)C(=O)N[C@@H]([C@@H](C)CC)C(=O)N[C@@H](CC(C)C)C(=O)N[C@@H](CCCCN)C(=O)N[C@@H](CCCCN)C(=O)N[C@@H](C)C(=O)N1)C(=O)N[C@@H](CC(C)C)C(=O)N[C@@H](CO)C(=O)O` (stereo partly drawn) [IDP-P1708160] (H-APK[ξC]VILKKA[ξC]AYILS-OH; linker 4-11 via Octanediyl(1,8); N-terminus and C-terminus assumed), the half-inhibitory concentration (IC50) in assay [1] (setting [6]) was 7.5 µM; in assay [2], 42 ± 2 µM; in assay [3] (24 h) it was 15 µM; in assay [3] (72 h), 15 µM; in assay [4] (24 h) it was 15 µM; in assay [4] (72 h), 10 µM. In addition, it took 16 ± 1 µM to reach half-maximal inhibition in assay [5] (IC50).
Consider `CC[C@H](C)[C@H](NC(=O)[C@H](Cc1ccc(O)cc1)NC(=O)[C@H](C)NC(=O)[C@@H]1CSCc2ccc(cc2)-c2ccc(cc2)CSC[C@H](NC(=O)[C@H](CCCCN)NC(=O)[C@@H]2CCCN2C(=O)[C@H](C)N)C(=O)N[C@@H](C(C)C)C(=O)N[C@@H]([C@@H](C)CC)C(=O)N[C@@H](CC(C)C)C(=O)N[C@@H](CCCCN)C(=O)N[C@@H](CCCCN)C(=O)N[C@@H](C)C(=O)N1)C(=O)N[C@@H](CC(C)C)C(=O)N[C@@H](CO)C(=O)O` [IDP-P1708161] (H-APKCVILKKACAYILS-OH; linker 4-11 via Biphenyl(4,4'-CH2)2; N-terminus and C-terminus assumed), for which the IC50 in assay [2] amounted to 29 ± 2 µM; in assay [3] (24 h), 5 µM; in assay [3] (72 h) it was 7.5 µM; in assay [4] (24 h), 12.5 µM; in assay [4] (72 h), 15 µM; in assay [5], 14 ± 1 µM.
For the molecule `CC[C@H](C)[C@H](NC(=O)[C@H](Cc1ccc(O)cc1)NC(=O)[C@H](C)NC(=O)C1(C)CCCC=CCCCCCCC(C)(NC(=O)[C@H](CCCCN)NC(=O)[C@@H]2CCCN2C(=O)[C@H](C)N)C(=O)N[C@@H](C(C)C)C(=O)N[C@@H]([C@@H](C)CC)C(=O)N[C@@H](CC(C)C)C(=O)N[C@@H](CCCCN)C(=O)N[C@@H](CCCCN)C(=O)N[C@@H](C)C(=O)N1)C(=O)N[C@@H](CC(C)C)C(=O)N[C@@H](CO)C(=O)O` (stereo partly drawn) [S09, APKXVILKKAXAYILS—OH] (H-APK[X1]VILKKA[ξαMeNle(6-ylidene)]AYILS-OH; staple 4-11; N-terminus assumed), the half-inhibitory concentration (IC50) in assay [1] (U266DOX4 (resistant to Doxorubicin), MTT, 24-72 h, Table 7, read-out: IC50 values in μM for S09) is 5 µM; in assay [2] (MBA-MD231, MTT, 24-72 h, Table 12, read-out: IC50 values), 4.9 ± 0.3 µM; in assay [3] (RPMI, MTT, 24-72 h, Table 7, read-out: IC50 values in μM for S09), 7.4 µM; in assay [4] (read-out: IC50 values in μM for S09, MM1R (resistant to Dexamethasone), MTT, 24-72 h, Table 7), 8.3 µM; in assay [5] (NCI-H128, MTT, 24-72 h, Table 12, read-out: IC50 values), 3 ± 1 µM.
In the case of `CC[C@H](C)[C@H](NC(=O)[C@H](Cc1ccc(O)cc1)NC(=O)[C@H](C)NC(=O)C1(C)CCCC=CCCCCCCC(C)(NC(=O)[C@H](CCCCN)NC(=O)[C@@H]2CCCN2C(=O)[C@H](C)N)C(=O)N[C@@H](C(C)C)C(=O)N[C@@H]([C@@H](C)CC)C(=O)N[C@@H](Cc2ccccc2)C(=O)N[C@@H](CCCCN)C(=O)N[C@@H](CCCCN)C(=O)N[C@@H](C)C(=O)N1)C(=O)N[C@@H](CC(C)C)C(=O)N[C@@H](CO)C(=O)O` (stereo partly drawn) [S14, APKXVIFKKAXAYILS—OH] (H-APK[X1]VIFKKA[ξαMeNle(6-ylidene)]AYILS-OH; staple 4-11; N-terminus assumed), the IC50 amounted to 15 µM in assay [1] (U266DOX4, 24 hr, Table 13, read-out: IC50 after 24 hr values); 15 µM in assay [1] (setting [6]); 10 µM in assay [3] (24 h); 10 µM in assay [3] (72 h); 15 µM in assay [4] (24 h); 15 µM in assay [4] (72 h).

These data come from patent US20200261534A1, “NEW TREATMENTS OF MULTIPLE MYELOMA” (priority 2017, published 2020).
